{
  "source": "paper PMC11327140",
  "about": "“Selective inhibitor of sodium-calcium exchanger, SEA0400, affects NMDA receptor currents and abolishes their calcium-dependent block by tricyclic antidepressants” (Frontiers in Pharmacology, 2024)",
  "key": {"[1]": {"system": "NMDAR channels", "design": "method as in MacDonald et al., 1991", "conditions": "ref MacDonald et al., 1991; cited from earlier work"}, "[2]": {"molecular_target": "NMDA receptor (NMDAR) currents (Rattus norvegicus, UniProt P35439+Q00959+Q00960)", "sequence (Q00960 27-1482 limits assumed, other chains not shown)": "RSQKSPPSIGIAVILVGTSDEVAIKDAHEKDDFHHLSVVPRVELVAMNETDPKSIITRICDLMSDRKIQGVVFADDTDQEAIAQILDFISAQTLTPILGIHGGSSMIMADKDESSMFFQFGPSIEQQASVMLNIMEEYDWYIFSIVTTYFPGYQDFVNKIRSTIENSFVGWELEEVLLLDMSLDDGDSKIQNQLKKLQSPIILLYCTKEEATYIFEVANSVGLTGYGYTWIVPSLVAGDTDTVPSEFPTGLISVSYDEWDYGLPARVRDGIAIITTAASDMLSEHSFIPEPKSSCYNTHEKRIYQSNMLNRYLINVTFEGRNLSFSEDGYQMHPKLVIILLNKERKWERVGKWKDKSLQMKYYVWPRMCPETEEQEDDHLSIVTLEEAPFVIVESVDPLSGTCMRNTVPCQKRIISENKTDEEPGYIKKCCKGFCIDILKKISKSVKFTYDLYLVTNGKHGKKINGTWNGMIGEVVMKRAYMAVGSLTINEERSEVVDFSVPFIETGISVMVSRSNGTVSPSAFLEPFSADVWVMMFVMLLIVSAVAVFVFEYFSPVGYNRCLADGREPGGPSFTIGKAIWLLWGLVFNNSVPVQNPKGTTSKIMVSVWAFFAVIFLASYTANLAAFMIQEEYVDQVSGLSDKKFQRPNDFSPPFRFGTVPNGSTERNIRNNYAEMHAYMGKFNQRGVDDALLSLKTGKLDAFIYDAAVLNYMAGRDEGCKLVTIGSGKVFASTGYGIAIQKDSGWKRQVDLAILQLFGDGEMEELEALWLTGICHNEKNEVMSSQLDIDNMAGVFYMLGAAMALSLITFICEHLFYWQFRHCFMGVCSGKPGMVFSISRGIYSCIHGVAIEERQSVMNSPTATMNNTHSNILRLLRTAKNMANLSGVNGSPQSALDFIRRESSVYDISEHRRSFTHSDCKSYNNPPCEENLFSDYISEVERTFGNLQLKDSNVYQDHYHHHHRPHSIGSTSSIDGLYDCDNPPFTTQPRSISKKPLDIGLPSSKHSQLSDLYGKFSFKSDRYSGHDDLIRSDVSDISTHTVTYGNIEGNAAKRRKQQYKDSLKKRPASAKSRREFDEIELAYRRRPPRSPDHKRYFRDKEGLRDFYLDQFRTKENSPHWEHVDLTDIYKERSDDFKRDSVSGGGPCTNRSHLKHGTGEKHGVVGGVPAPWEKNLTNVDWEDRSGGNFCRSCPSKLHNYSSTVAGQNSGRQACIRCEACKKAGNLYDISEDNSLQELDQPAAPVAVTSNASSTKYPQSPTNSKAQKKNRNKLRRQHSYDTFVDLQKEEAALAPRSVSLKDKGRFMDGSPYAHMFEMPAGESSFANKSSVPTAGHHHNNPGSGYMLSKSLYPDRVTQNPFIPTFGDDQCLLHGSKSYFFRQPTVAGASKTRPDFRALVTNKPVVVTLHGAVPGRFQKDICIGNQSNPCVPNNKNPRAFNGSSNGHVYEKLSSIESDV", "sequence (Q00959 23-1464 limits assumed, other chains not shown)": "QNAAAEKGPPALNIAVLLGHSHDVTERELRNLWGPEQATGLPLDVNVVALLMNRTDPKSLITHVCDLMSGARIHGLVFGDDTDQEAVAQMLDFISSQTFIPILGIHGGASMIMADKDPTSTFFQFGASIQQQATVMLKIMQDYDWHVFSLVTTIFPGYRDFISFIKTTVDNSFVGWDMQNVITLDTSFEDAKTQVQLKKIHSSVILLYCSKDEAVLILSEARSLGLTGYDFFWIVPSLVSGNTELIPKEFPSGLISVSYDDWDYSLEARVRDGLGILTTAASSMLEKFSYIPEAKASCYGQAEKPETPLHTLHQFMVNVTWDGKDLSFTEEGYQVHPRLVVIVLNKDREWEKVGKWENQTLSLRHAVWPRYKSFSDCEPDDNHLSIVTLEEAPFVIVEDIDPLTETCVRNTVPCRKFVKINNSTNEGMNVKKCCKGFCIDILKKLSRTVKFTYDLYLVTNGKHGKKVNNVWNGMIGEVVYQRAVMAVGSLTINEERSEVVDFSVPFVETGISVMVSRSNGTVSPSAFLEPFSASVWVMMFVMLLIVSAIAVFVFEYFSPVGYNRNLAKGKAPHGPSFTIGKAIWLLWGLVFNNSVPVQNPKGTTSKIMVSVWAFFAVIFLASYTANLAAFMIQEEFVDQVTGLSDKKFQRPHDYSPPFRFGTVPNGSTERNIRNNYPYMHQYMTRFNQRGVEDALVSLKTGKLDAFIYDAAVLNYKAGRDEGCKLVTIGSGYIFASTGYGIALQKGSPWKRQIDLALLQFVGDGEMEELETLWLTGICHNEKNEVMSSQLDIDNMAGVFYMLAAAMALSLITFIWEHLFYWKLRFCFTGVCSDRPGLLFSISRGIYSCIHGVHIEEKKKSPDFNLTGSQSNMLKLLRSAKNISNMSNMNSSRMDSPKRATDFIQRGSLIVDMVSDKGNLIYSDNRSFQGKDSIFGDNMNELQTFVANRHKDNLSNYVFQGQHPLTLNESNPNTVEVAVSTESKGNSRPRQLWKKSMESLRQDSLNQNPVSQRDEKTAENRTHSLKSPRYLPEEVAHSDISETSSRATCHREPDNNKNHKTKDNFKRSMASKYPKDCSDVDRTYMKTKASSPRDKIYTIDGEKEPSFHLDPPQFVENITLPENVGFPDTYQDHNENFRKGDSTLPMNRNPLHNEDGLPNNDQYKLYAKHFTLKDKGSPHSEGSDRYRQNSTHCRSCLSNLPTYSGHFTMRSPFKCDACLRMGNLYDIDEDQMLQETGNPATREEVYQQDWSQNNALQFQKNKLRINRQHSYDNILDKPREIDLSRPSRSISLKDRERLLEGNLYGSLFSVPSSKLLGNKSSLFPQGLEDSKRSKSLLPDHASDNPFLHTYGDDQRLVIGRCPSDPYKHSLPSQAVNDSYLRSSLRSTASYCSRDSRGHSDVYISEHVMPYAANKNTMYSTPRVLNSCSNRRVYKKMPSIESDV", "assay": "Whole-cell patch-clamp recording of NMDA-activated currents in cortical neurons of primary culture", "type": "cell-based", "conditions": "for change of fraction of current blocked in the presence of SEA0400: 50 nM SEA0400, 10 µM KB-R7943, 10 µM ATL, 1 µM DES; for increase of IC50 for NMDAR inhibition in the presence of SEA0400: 50 nM SEA0400 versus control"}, "[3]": {"system": "NMDAR currents", "design": "method as in Sibarov et al., 2015", "conditions": "10 µM KB-R7943; ref Sibarov et al., 2015; cited from earlier work"}, "[4]": {"system": "NCX", "design": "method as in Matsuda et al., 2001", "conditions": "ref Matsuda et al., 2001; read-out: IC50 for SEA0400 inhibition of NCX in neurons; cited from earlier work"}},
  "note": "“And” between values parts separate entries of the source, which are not always exact repeats. Equal entries are not always repeated. “Also recorded” adds a separate entry of the source.",
  "data": [
    {"compound": "c1ccc(C2(N3CCCCC3)CCCCC2)cc1", "note": "[phencyclidine]", "values": [
      {"measurement": "rate constant of dissociation from NMDAR channels", "setting": "[1]", "value": "about 0.03 s^-1"}
    ]},
    {"compound": "CN(C)CCC=C1c2ccccc2CCc2ccccc21", "note": "[ATL, amitriptyline]", "values": [
      {"measurement": "change of fraction of current blocked in the presence of SEA0400", "setting": "[2]; 1 mM Ca2+, -70 mV", "value": "decreased"},
      {"measurement": "increase of IC50 for NMDAR inhibition in the presence of SEA0400", "setting": "[2]", "value": 23, "unit": "fold"},
      {"measurement": "increase of IC50 for NMDAR inhibition in the presence of SEA0400", "setting": "[2]; listed as amitriptyline", "value": "about 20 fold"}
    ]},
    {"compound": "N=C(N)SCCc1ccc(OCc2ccc([N+](=O)[O-])cc2)cc1", "note": "[KB-R7943]", "values": [
      {"measurement": "change of fraction of current blocked in the presence of SEA0400", "setting": "[2]; 1 mM Ca2+, -70 mV", "value": "increased"},
      {"measurement": "decrease of NMDAR currents", "setting": "[3]", "value": "about 60%"}
    ]},
    {"compound": "C[C@]12N[C@H](Cc3ccccc31)c1ccccc12", "note": "[MK-801]", "values": [
      {"measurement": "rate constant of dissociation from NMDAR channels", "setting": "[1]", "value": "~0.003", "unit": "s⁻¹"}
    ]},
    {"compound": "CCOc1ccc(Oc2ccc(OCc3cc(F)ccc3F)cc2)c(N)c1", "note": "[SEA0400]", "values": [
      {"measurement": "decrease of decay time constant versus control", "setting": "[2]; 50 nM SEA0400, 1 mM Ca2+", "value": 2, "unit": "fold"},
      {"measurement": "effect on NMDAR currents in BAPTA-loaded neurons", "setting": "[2]; 50 nM SEA0400, 1 mM external Ca2+, neurons loaded with BAPTA", "value": "abolished the effect; also recorded: did not cause NMDAR inhibition"},
      {"measurement": "voltage dependence of decrease of steady-state amplitude", "setting": "[2]; 50 nM SEA0400, -70 mV versus +30 mV, 1 mM Ca2+", "value": "did not depend on membrane voltage"},
      {"measurement": "effect on steady-state amplitude of NMDA-activated currents in Ca2+-free solution", "setting": "[2]; 50 nM SEA0400, Ca2+ omitted from external solution, -70 mV", "value": "abolished the effect; also recorded: did not cause any decrease"},
      {"measurement": "IC50", "setting": "[2]; 2 mM Ca2+, -70 mV, 100 µM NMDA + 30 µM Gly, steady state, read-out: IC50 for SEA0400 inhibition of NMDA-activated currents", "value": "0.027 µM and ~0.027 µM"},
      {"measurement": "decrease of steady-state amplitude of NMDAR currents (upper limit of effect)", "setting": "[2]; SEA0400 itself, extracellular Ca2+ present", "value": "≤ 30", "unit": "%"},
      {"measurement": "decay time constant of NMDAR current from peak to steady state", "setting": "[2]; in the presence of 50 nM SEA0400, 1 mM Ca2+, -70 mV", "value": "2.0 ± 0.2", "unit": "s"},
      {"measurement": "IC50", "setting": "[4]", "value": 0.033, "unit": "µM"}
    ]},
    {"compound": "CNCCCN1c2ccccc2CCc2ccccc21", "note": "[DES, desipramine]", "values": [
      {"measurement": "change of fraction of current blocked in the presence of SEA0400", "setting": "[2]; 1 mM Ca2+, -70 mV", "value": "decreased"},
      {"measurement": "increase of IC50 for NMDAR inhibition in the presence of SEA0400", "setting": "[2]", "value": "~16", "unit": "fold"},
      {"measurement": "increase of IC50 for NMDAR inhibition in the presence of SEA0400", "setting": "[2]; listed as desipramine", "value": "about 20 fold"}
    ]}
  ]
}
